Data reported in patent US6573297B2, “(2-substituted oxyphenyl)alkanamide derivative, hair growth promoter and external composition for skin using the same” (Shiseido Co., Ltd., priority 1999, dated 2003).

system: C3H/HeNCrj mice; test: Hair Regrowth Test; format: in vivo; details: 23 days of application; 0.1 ml of 0.1 w/v % ethanol solution on shaved back once a day; average of group (10 mice)
Experimental: By using C3H/HeNCrj mice, whose hair cycle was in resting stage, the experiment was performed according to the method of Ogawa et. al. (Normal and Abnormal Epidermal Differentiation, Edited by M. Seiji and I. A. Bernstein, Pages 159-170, 1982, Todai Shuppan). 10 mice were used in a group and the mice's hair within the area of 3×4 cm of the regions of back was shaved by a clipper and a shaver. 0.1 ml of ethanol (negative contrast) or ethanol solution of the tested compound (0.1 w/v %) was applied on the shaved portion once a day. For hair regrowth effect of the tested compound, the hair regrowth area of mice's region of back was measured and ratio of the hair regrowth area with respect to the shaved area was evaluated as hair regrowth area rate (%).

Compound	Hair Regrowth Area Rate
CCCCCCCCCCCCCCCCCCNC(=O)Oc1ccccc1CCC(=O)NCCCN(C)C [Compound 1, 2-[3-[[3-(Dimethylamino)propyl]amino]-3-oxopropyl]phenyl N-octadecylcarbamate]	69%
CCCCCCCCCCCCCCCCCCNC(=O)Oc1ccccc1CCC(=O)NCCCN(C)C.Cl [Compound 2, 2-[3-[[3-(Dimethylamino)propyl]amino]-3-oxopropyl]phenyl N-octadecylcarbamate hydrochloride]	10%

same assay, conditions: 24 days of application; 0.1 ml of 0.1 w/v % ethanol solution on shaved back once a day; average of group (10 mice)

Compound	Hair Regrowth Area Rate
CCCCCCCCCCCCCCCCCCNC(=O)Oc1ccccc1CCC(=O)N1CCN(C)CC1 [Compound 3, 2-[3-(4-Methylpiperazino)-3-oxopropyl]phenyl N-octadecylcarbamate]	100%
CCCCCCCCCCCCCCCCCCNC(=O)Oc1ccccc1CCC(=O)N1CCN(C)CC1.Cl [Compound 4, 2-[3-(4-Methylpiperazino)-3-oxopropyl]phenyl N-octadecylcarbamate hydrochloride]	100%
CCCCCCCCCCCCCCCCCCNC(=O)Oc1ccccc1CCC(=O)NCCCN1CCOCC1 [Compound 5, 2-{3-[(3-Morpholinopropyl)amino]-3-oxopropyl}phenyl N-octadecylcarbamate]	16%
CCCCCCCCCCCCCCCCCCNC(=O)Oc1ccccc1CCC(=O)NCCCN1CCOCC1.Cl [Compound 6, 2-{3-[(3-Morpholinopropyl)amino]-3-oxopropyl}phenyl N-octadecylcarbamate hydrochloride]	17%
CCCCCCCCCCCCCCCCCCOc1ccccc1CCC(=O)NCCCN(C)C.Cl [Compound 8, N-[3-(Dimethylamino)propyl]-3-[2-(octadecyloxy)phenyl]propanamide hydrochloride]	100%
CCCCCCCCCCCCCCCCCCOc1ccccc1CCC(=O)NCCCN1CCOCC1.Cl [Compound 10, N-(3-Morpholinopropyl)-3-[2-(octadecyloxy)phenyl]propanamide hydrochloride]	38%
CCCCCCCCCCCCCCCCCCOc1ccccc1CCC(=O)N1CCN(C)CC1.Cl [Compound 12, 1-(4-Methylpiperazino)-3-[2-(octadecyloxy)phenyl]-1-propanone hydrochloride]	38%
